Test results from the supplement of paper PMC7840683.
± gives the standard deviation of the averaged measurements.

Test system: HepaRG
Assay: LDH release cytotoxicity, % of total lysis control; higher = more cytotoxic
Conditions: 48 h
In short: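 Percent cytotoxicity was scaled between on-plate vehicle and total lysis controls, then averaged over duplicate wells. The cells were single-lot HepaRG on collagen I-coated 96-well plates, exposed for 48 h to eight-point half-log test chemical series topping at 100 µM in serum-free induction medium with 0.5% DMSO. Total lysis wells got 0.1% Triton X, and LDH in 50 µL spent medium was read as resorufin fluorescence (CytoTox-ONE, Tecan Safire).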

SMILES | LDH release cytotoxicity (0.03162 µM) [%] | LDH release cytotoxicity (0.1 µM) [%] | LDH release cytotoxicity (0.3162278 µM) [%] | LDH release cytotoxicity (1 µM) [%] | LDH release cytotoxicity (3.16228 µM) [%] | LDH release cytotoxicity (10 µM) [%] | LDH release cytotoxicity (31.6228 µM) [%] | LDH release cytotoxicity (100 µM) [%] | further results
COc1ccc([N+](=O)[O-])cc1N [5-Nitro-o-anisidine] | 0.0404 ± 0.33 | -1.94 ± 0.095 | -1.36 ± 0.15 | -1.28 ± 0.27 | -1.4 ± 0.22 | -1.25 ± 0.021 | 0.0123 ± 0.15 | 0.941 ± 0.76 | –
CSC(=O)c1c(C(F)F)nc(C(F)(F)F)c(C(=O)SC)c1CC(C)C [Dithiopyr] | – | – | – | – | – | – | – | – | LDH release cytotoxicity (0.0140721 µM): -1.51 ± 2.5%; LDH release cytotoxicity (0.0445 µM): -2.25 ± 0.63%; LDH release cytotoxicity (0.1407214 µM): -2.63 ± 0.43%; LDH release cytotoxicity (0.445 µM): -3.81 ± 0.56%; LDH release cytotoxicity (1.4072136 µM): -3.84 ± 0.3%; LDH release cytotoxicity (4.45 µM): -5.82 ± 2.5%; LDH release cytotoxicity (14.072136 µM): -1.76 ± 2.3%; LDH release cytotoxicity (44.5 µM): -1.31 ± 1.6%
COc1cc(C(=O)NC2CCN(C)CC2)ccc1Nc1ncc2c(n1)N(C1CCCC1)CC(F)(F)C(=O)N2C | – | – | – | – | – | – | – | – | LDH release cytotoxicity (0.02941 µM): -0.558 ± 1.5%; LDH release cytotoxicity (0.093 µM): 1.88 ± 0.43%; LDH release cytotoxicity (0.294092 µM): 6.47 ± 1.2%; LDH release cytotoxicity (0.93 µM): 10.3 ± 0.45%; LDH release cytotoxicity (2.9409182 µM): 9.21 ± 3.6%; LDH release cytotoxicity (9.3 µM): 12.6 ± 0.61%; LDH release cytotoxicity (29.4092 µM): 88.1 ± 6.3%; LDH release cytotoxicity (93 µM): 90.9 ± 9.2%
Cc1ccc(O)cc1 [p-Cresol] | -0.87 ± 0.85 | -2.34 ± 0.61 | -1.45 ± 1.2 | -0.608 ± 0.68 | -1.02 ± 0.95 | -1.22 ± 0.042 | -0.051 ± 0.075 | 1.76 ± 0.21 | –
N#CC1CC(F)(F)CN1C(=O)CNC1CC2CCC(C1)N2c1ncccn1 (configuration not stated) | -1.64 ± 0.046 | -2.99 ± 0.32 | -2.24 ± 0.023 | -2.72 ± 0.35 | -2.06 ± 0.031 | -1.96 ± 0.71 | -1.33 ± 0.77 | -1.49 ± 0.99 | –
Nc1ccc([N+](=O)[O-])cc1 [4-Nitroaniline] | -1.77 ± 1.4 | -2.08 ± 0.69 | -1.811 ± 0.018 | -1.58 ± 0.75 | -1.84 ± 0.43 | -0.905 ± 0.22 | 0.842 ± 1.3 | -0.219 ± 0.45 | –
O=C(O)C(Cl)Cl [Dichloroacetic acid] | -1.93 ± 1.3 | -1.93 ± 0.89 | -1.5 ± 1.6 | -2.38 ± 1.1 | -2.6 ± 1.3 | -1.71 ± 0.32 | -2.34 ± 0.81 | 0.0869 ± 1.1 | –
Cc1cc(NC(=O)C(=O)O)cc(C)c1Oc1ccc(O)c2c1CCC2 | 0.0573 ± 0.64 | -0.831 ± 0.11 | -0.658 ± 0.17 | -1.32 ± 0.24 | -1.06 ± 0.025 | -0.633 ± 0.77 | 1.17 ± 2.3 | 0.214 ± 0.025 | –
c1ccc2c(c1)-c1cccc3c1c-2cc1ccccc13 [Benzo(b)fluoranthene] | -1.73 ± 0.79 | -2.8 ± 0.051 | -1.72 ± 0.55 | -2.85 ± 1 | -1.02 ± 0.32 | 1.06 ± 1.1 | 5.33 ± 2.5 | 5.52 ± 2.2 | –
CC(=O)OCC(COC(C)=O)OC(C)=O [Triacetin] | -0.962 ± 0.12 | -3.22 ± 0.49 | -1.81 ± 0.69 | -1.13 ± 0.65 | -1.14 ± 0.036 | -0.506 ± 0.1 | 0.136 ± 0.76 | 0.128 ± 0.77 | –
O=C1CCC(N2C(=O)c3ccccc3C2=O)C(=O)N1 (configuration not stated) [Thalidomide] | -0.888 ± 0.55 | -1.52 ± 0.44 | -0.291 ± 0.28 | -0.415 ± 0.18 | -0.0333 ± 0.45 | 0.674 ± 0.93 | 1.56 ± 1.5 | 1.53 ± 1.5 | –
Nc1nc2nc[nH]c2c(=S)[nH]1 [6-Thioguanine] | – | -2.6 ± 0.7 | – | -2.88 ± 0.19 | -2.5 ± 0.32 | -2.64 ± 0.061 | -1.86 ± 0.074 | -0.0388 ± 0.38 | LDH release cytotoxicity (0.031623 µM): 1.04 ± 0.63%; LDH release cytotoxicity (0.316228 µM): -2.87 ± 0.84%
CN(C)C(=S)SSC(=S)N(C)C [Thiram] | -1.63 ± 0.73 | -2.1 ± 1.1 | -2.29 ± 0.55 | -1.46 ± 0.3 | -2.28 ± 0.41 | -1.86 ± 0.66 | -1.13 ± 0.084 | 2.802 ± 0.022 | –
CC(=O)C1C(=O)C=C(C)OC1=O (configuration not stated) [Sodium dehydroacetate] | -0.267 ± 0.55 | -1.4 ± 0.22 | -2.06 ± 0.58 | -1.85 ± 0.29 | -2.36 ± 0.14 | -1.16 ± 0.3 | -0.728 ± 0.029 | 0.541 ± 0.069 | –
CCOC(=O)COc1cc(-n2ncc(C(F)(F)F)c(C)c2=O)c(F)cc1Cl [Flufenpyr-ethyl] | -1.89 ± 1.7 | -1.45 ± 0.22 | -1.14 ± 0.024 | -1.34 ± 0.57 | -1.22 ± 0.67 | -0.592 ± 0.22 | -0.509 ± 1.1 | 0.726 ± 0.9 | –
Oc1nc(O)nc(O)n1 [Cyanuric acid] | – | – | – | – | – | – | – | – | LDH release cytotoxicity (0.0314647 µM): -2.84 ± 0.097%; LDH release cytotoxicity (0.0995 µM): -3.15 ± 0.5%; LDH release cytotoxicity (0.3146466 µM): -2.69 ± 0.67%; LDH release cytotoxicity (0.995 µM): -2.08 ± 0.61%; LDH release cytotoxicity (3.14647 µM): -2.52 ± 0.74%; LDH release cytotoxicity (9.95 µM): -1.85 ± 1.4%; LDH release cytotoxicity (31.4647 µM): -1.63 ± 0.51%; LDH release cytotoxicity (99.5 µM): -0.7 ± 1.2%
N[C@@H](Cc1c[nH]c2ccccc12)C(=O)O [L-Tryptophan] | -1.94 ± 0.23 | -2.65 ± 0.14 | -1.1 ± 0.19 | -1.86 ± 0.22 | -2.03 ± 0.27 | -1.29 ± 0.26 | -1.37 ± 0.3 | -1.29 ± 0.24 | –
CC(C)(O)c1coc(S(=O)(=O)NC(=O)Nc2c3c(cc4c2CCC4)CCC3)c1 | -0.467 ± 0.54 | -0.342 ± 0.93 | -0.339 ± 0.74 | 0.236 ± 0.21 | 0.788 ± 0.39 | 0.179 ± 0.27 | 0.394 ± 0.043 | 1.465 ± 0.0083 | –
Cc1cc(SC2C(=O)CC(CCc3ccc(N)cc3)(C(C)C)OC2=O)c(C(C)(C)C)cc1CO (configuration not stated) [CI-1029] | -0.634 ± 0.8 | -3.84 ± 0.53 | -3.74 ± 0.38 | -3.966 ± 0.027 | -4.19 ± 0.59 | -3.49 ± 0.12 | -3.96 ± 0.73 | -2.25 ± 0.55 | –
